Experimental data taken from US20160025704A1, “METHODS FOR IDENTIFYING NEUROPROTECTIVE PKC ACTIVATORS” (priority 2013, published 2016).

How the values were obtained:
ECE [1] = test: ECE activity in cultured neurons (fluorometric); format: cell-based; conditions: 1 μM, compared to ethanol alone
Procedure: (§1) Aβ can be degraded in vivo by a number of enzymes, including insulin degrading enzyme (insulysin), neprilysin, and ECE (FIG. 12). Because PKC-ε overexpression has been reported to activate ECE (Choi et al., Proc. Natl. Acad. Sci. USA. 2006; 103: 8215-20), the effect of PKC activators on ECE was analyzed. Candidate PKC activators were added to either SH-SY5Y cells (Bryo—0.27 nM, DCP-LA—1 μM, and DHA-CP6 1 μM) or cultured neurons (DHA-CP6—1 μM, EPA-CP5— 1 μM, and AA-CP4— 1 μM), and grown on either 12- or 24-well plates. After various time periods, the cells were collected and ECE activity was measured fluorometrically. Results are shown below in FIG. 13. *, p<0.05; **, p<0.001.

PKC-ε = target: T1, PKC-ε (Homo sapiens, UniProt Q02156); test: Activation of purified PKC isozymes; format: biochemical; conditions: purified PKC isozymes (9 ng), preincubated 5 minutes at room temperature
T1 sequence (Q02156 1-737): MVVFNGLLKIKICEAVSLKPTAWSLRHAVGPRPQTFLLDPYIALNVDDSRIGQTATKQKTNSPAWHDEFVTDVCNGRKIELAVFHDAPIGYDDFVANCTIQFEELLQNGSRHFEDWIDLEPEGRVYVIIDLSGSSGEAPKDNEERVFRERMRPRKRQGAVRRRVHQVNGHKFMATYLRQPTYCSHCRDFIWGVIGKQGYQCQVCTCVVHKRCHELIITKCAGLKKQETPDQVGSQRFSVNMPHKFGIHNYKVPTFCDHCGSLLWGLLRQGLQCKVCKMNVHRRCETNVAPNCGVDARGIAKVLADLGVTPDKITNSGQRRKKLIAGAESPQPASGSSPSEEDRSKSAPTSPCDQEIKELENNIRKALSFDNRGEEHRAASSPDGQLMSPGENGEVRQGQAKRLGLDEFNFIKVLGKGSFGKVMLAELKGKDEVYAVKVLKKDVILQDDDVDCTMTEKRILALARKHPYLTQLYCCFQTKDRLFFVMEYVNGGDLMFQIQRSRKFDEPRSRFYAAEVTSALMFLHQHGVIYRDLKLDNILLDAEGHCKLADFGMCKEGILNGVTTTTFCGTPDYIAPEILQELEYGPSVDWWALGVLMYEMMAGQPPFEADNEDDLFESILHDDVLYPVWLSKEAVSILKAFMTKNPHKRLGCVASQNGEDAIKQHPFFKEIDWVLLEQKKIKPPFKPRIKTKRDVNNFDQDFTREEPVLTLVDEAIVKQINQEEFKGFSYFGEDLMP
Procedure: Protocol: Purified PKC-α, βII, γ, δ, or ε (9 ng) was preincubated for 5 minutes at room temperature with the following PKC activators: (A) DHA-CP6, (B) EPA-CP5, (C) AA-CP4, (D) DCP-LA, (E) “other cyclopropaneated and epoxidized fatty acids, alcohols, and methyl esters.” followed by measurement of PKC activity as described under Experimental Procedures. Results are shown below in FIG. 6.

[2] = test system: TA 100 cells & TA 1535 cells / TA 98 cells; test: AMES testing, overall result (mutagenic potential); format: cell-based
From the text: (§2) The AMES test is a rapid screening of the mutagenic potential of chemical compounds. […] Between 50% and 70% of all known carcinogens test positive in the AMES test.

ECE [3] = test: ECE activity in SH-SY5Y cells (fluorometric); format: cell-based; conditions: 1 μM, compared to ethanol alone
Procedure: as §1
PKCε overexpression has been reported to activate endothelin converting enzyme (ECE). The effect of PKC activators on ECE was measured here with Bryostatin, DCP-LA, and DHA-CP6. […] Protocol: Bryostatin (0.27 nM), DCP-LA (1 μM), DHACP6 (1 μM), EPA-CP5 (1 μM), AA-CP4 (1 μM), or ethanol alone were added to SH-SYSY cells growing on 12- or 24-well plates. After various periods of time, the cells were collected and ECE activity was measured fluorometrically as showing in FIG. 34 below (* p<0.05, ** p<0.001).

sAPP-α = sAPP-α secretion in an Alzheimer's disease cell line; format: cell-based, human; conditions: 100 nM pretreatment, bryostatin 0.1 nM
Procedure: Protocol: An Alzheimer's disease cell line was incubated with bryostatin (0.1 nM), Benzolactam (0.1 nM or 1.0 μM), DMSO, pre-treated with staurosporin (100 nM) plus bryostatin (0.1 nM) for three hours. […] The graph units are relative to the vehicle, DMSO, alone (1).

[4] = Internal toxicity study: Clinical Chemistry Panel & Hematology Panel; format: in vivo; conditions: in vivo
Procedure: Internal tests measuring various biological markers were performed 24 hours after administering a PKC activator (bryostatin, cyclopropanated arachidonic acid, DCPLA, and DHACP6) at 10× the therapeutic dose. The results are shown below in Tables 5-7.

TA 1535 Cells = test: AMES test, TA1535 cells; format: cell-based; conditions: plate count
From the text: as §2

[5] = test system: healthy brown Norway rats; test: Learning, memory and mushroom spine synapses in healthy rats, water maze training; format: in vivo; conditions: PKCα inhibitor given with bryostatin and water maze training
From the text: Protocol: Non-disease, healthy brown Norway rats (at 4-5 months old) were used in this study. […] (Nv=naîve controls; Sw=swim controls; Mz=water maze treatment; and Mz/Br=water maze treatment plus bryostatin treatment).

HCN-2 cells = test: Synaptogenesis in HCN-2 cells; format: cell-based, human; conditions: 10 days
Procedure: FIG. 9 illustrates that activation of PKC-ε induces synaptogenesis in HCN-2 cells. The HCN-2 cell line was derived from cortical tissue removed from a patient undergoing hemispherectomy for intractable seizures associated with Rasmussen's encephalitis. The cells were treated with either DCPLA-methyl ester or bryostatin-1 for 10 days. […] Thus, PKC-ε activation can induce synaptogenesis in both embryonic and adult neuronal cells.

[6] = test system: neurons in the CA1 hippocampal area; test: Apoptotic cell death (TUNEL) in hippocampal CA1 area after ischemic (2-VO)/hypoxic event; format: in vivo; conditions: FIG. 11 legend; dose not given
Procedure: Protocol: Bryostatin-1 (15 μg/m^2) was administered through a tail vein (2 doses/week, for 10 doses), starting 24 hours after the end of the ischemic (2-VO)/hypoxic event. Staining for apoptotic cell death in the hippocampal CA1 area was performed 9 day after the last bryostatin-1 dose. […] (C) Quantification of TUNEL staining in stratum radiatum (n=3 animals; n=30 confocal images). Con=control; Bry=bryostatin-1; Isch=cerebral ischemia; ***, P<0.001.

[7] = test system: BDNF, NGF, NT-3, and GAP-43 mRNA; test: NTF mRNA expression in primary hippocampal neurons treated with Aβ (real time PCR); format: cell-based, rat; conditions: 100 nM; 1 μM Aβ; co-treated 24 hours or treated 12 hours after Aβ
Procedure: Protocol: Primary hippocampal neurons were treated with control buffer (Untreated), Aβ (1 μM, oligomeric form), or 0.5 nM bryostatin for 24 hours. Some cells were co-treated with Aβ plus 0.5 nM bryostatin (Bryo+Aβ) for 24 hours, or pre-treated with Aβ for 12 hours, washed out, and then treated with bryostatin for additional 12 hours (Aβ+Bryo). Cells were then lysed and total RNA was isolated. Relative expression change of BDNF, NGF, NT-3, and GAP-43 mRNA was quantitatively measured from real time PCR using specific primers against rat BDNF, NGF, NT-3, and GAP-43 mRNA (FIG. 14). A representative gel image is also shown below in FIG. 14 (Mean+SEM, *P<0.05, Aβ compared with untreated; #P<0.05, Bryo+Aβ or Aβ+Bryo compared with Aβ only).
Test A—DCPLA (500 nM): Primary hippocampal neurons were treated with control buffer (Untreated), Aβ (1 μM, oligomer), or 500 nM DCPLA for 24 hours. Some cells were pre-treated with Aβ for 12 hr and then treated with 500 nM DCPLA for 12 hours (Aβ+DCP-LA), or co-treated with Aβ plus 500 nM DCP-LA (DCP-LA+Aβ) for 24 hours. Total RNA was isolated and relative expression change of BDNF, NGF, NT-3, and GAP-43 mRNA was quantitatively measured from real time RT-PCR using specific primers against rat BDNF, NGF, NT-3, and GAP-43 mRNA (FIG. 15). A representative gel image is also shown below in FIG. 15 (Mean+SEM of three independent experiments, *P<0.05, Aβ compared with untreated; #P<0.05, Aβ+Bryo or Bryo+Aβ compared with Aβ only).
Test B—DCPLA-methyl ester (100 nM): Primary hippocampal neurons were treated with control buffer (Untreated), 1 μM Aβ, or 100 nM DCP-LA ME (the methyl ester form of DCP-LA) for 24 hours. Some cells were pre-treated with Aβ for 12 hr and then treated with 100 nM DCP-LA ME for 12 hours (Aβ+DCP-LA ME), or co-treated with Aβ plus […] (DCP-LA ME+Aβ) for 24 hours. Total RNA was isolated and relative expression change of BDNF, NGF, NT-3, and GAP-43 mRNA was quantitatively measured from real time RT-PCR using specific primers against rat BDNF, NGF, NT-3, and GAP-43 mRNA (FIG. 16). […]

Primary human neurons = test: Synaptogenicity in primary human neurons; format: cell-based; conditions: 100 nM
Procedure: Protocol: Primary human neurons were treated with either DCPLA-methyl ester (100 nM) or bryostatin-1 (0.27 nM).

Human primary neurons = test: ASPD-induced apoptosis in human primary neurons (Annexin-V Fluorescein); format: cell-based; conditions: 100 nM with 100 nM ASPD, 24 hours
Procedure: Protocol: Human primary neurons were grown on chambered slides and treated with vehicle (Control), 100 nM ASPD, ASPD+DCPLA-ME (100 nM), ASPD+bryostatin 1 (0.27 nM) and ASPD+DCPLA-ME (100 nM) or ASPD+bryostatin 1 (0.27 nM) in presence of PKC-ε inhibitor. Following 24 hours of incubation, cells were stained using Annexin-V Fluorescein to detect apoptotic cells and results are shown in FIG. 10 below. […] Data are mean±SEM of three independent experiments. (*p<0.05;** p<0.005 and *** p<0.0005).

## CCC1CC1CC1CC1CC1CC1CC1CC1CC1CC1CCCC(=O)O (stereo not drawn) [EPA-CP5]
ECE [1]
  ECE activity: increase in ECE activity

## CCC1CC1CC1CC1CC1CC1CC1CC1CC1CC1CC1CC1CCC(=O)OC (stereo not drawn) [DHA-CP6-methyl ester]
PKC-ε
  PKC-ε specificity versus PKC-α and PKC-δ: PKC-ε specificity ±15% PKC-α and PKC-δ

## CCC1CC1CC1CC1CC1CC1CC1CC1CC1CC1CC1CC1CCC(=O)O (stereo not drawn) [DHA-CP6]
[2]
  AMES testing result: not mutagenic
  Result (Mutagenic Potential): Result: Not mutagenic, p > 0.05
ECE [3]
  ECE activity: sustained increase in ECE activity
ECE [1]
  ECE activity: increase in ECE activity

## CN[C@@H]1C[C@H]2O[C@@](C)([C@@H]1OC)n1c3ccccc3c3c4c(c5c6ccccc6n2c5c31)C(=O)NC4 [staurosporin]
sAPP-α
  effect of pretreatment on bryostatin-enhanced sAPP-α secretion: completely abolished the effect of bryostatin

## cyclopropanated arachidonic acid
[2]
  AMES testing result: not mutagenic
  Result (Mutagenic Potential): Result: Not mutagenic, p > 0.05
[4]
  ALB (Albumin): 97.0 ± 2.6
  ALP (Alkaline phosphatase): 93.8 ± 6.6
  ALT (Alanine aminotransferase): 92.7 ± 5.4
  AST (Aspartate aminotransferase): 107.0 ± 10.3
  BA (Basophils): 400.0 ± 200.0
  BUN (Blood urea nitrogen): 92.0 ± 6.7
  CA (Calcium): 101.0 ± 3.0
  CO2-LC (Bicarbonate): 100.0 ± 5.4
  CREAT (Creatinine): 92.9 ± 5.2
  EO (Eosinophils): 500.0 ± 250.0
  GLU (Glucose): 84.8 ± 2.4
  HCT (Hematocrit): 93.3 ± 2.3
  Hb (Hemoglobin): 91.7 ± 6.0
  K (Potassium): 82.9 ± 3.6
  LY (Lymphocytes): 124.1 ± 34.4
  MCH (Mean corpuscular hemoglobin): 103.0 ± 10.7
  MCV (Mean corpuscular volume): 105.0 ± 2.0
  MO (Monocytes): 66.6 ± 33.3
  MPV (Mean platelet volume): 82.7 ± 3.7
  NA (Sodium): 99.3 ± 0.6
  NE (Neutrophils): 148.3 ± 51.7
  PLT (Platelet count): 164.5 ± 3.7
  RBC (Red Blood Cells): 89.2 ± 3.0
  TBILI (Total bilirubin): 78.2 ± 6.5
  TPROT (Total protein): 91.3 ± 1.4
  WBC (White blood count): 136.0 ± 42.6
TA 1535 Cells; 0.05 mM, TA 1535 Cells
  Negative: 93
  Positive: 3
TA 1535 Cells; 0.125 mM, TA1535 Cells
  Negative: 95
  Positive: 1
TA 1535 Cells; 0.5 mM, TA1535 Cells
  Negative: 94
  Positive: 2
TA 1535 Cells; 1 mM, TA1535 Cells
  Negative: 93
  Positive: 3

## Cn1cc(C2=C(c3cn(CCCSC(=N)N)c4ccccc34)C(=O)NC2=O)c2ccccc21 [Ro 31-8220]
[5]
  effect on bryostatin-promoted induction of mushroom spine synapses: inhibited

## CCCCCC1CC1CC1CC1CCCCCCCC(=O)OC (stereo not drawn) [DCPLA-methyl ester]
HCN-2 cells
  differentiation, neuronal branching and punctate colocalization of PSD-95 and synaptophysin: significant differentiation with neuronal branching and increased punctate colocalization of PSD-95 and synaptophysin
[6]
  apoptotic cell death in neurons in the CA1 hippocampal area: prevents apoptotic cell death
[7]
  NTF mRNA expression decreased by Aβ: recovers NTF mRNA expression decreased by Aβ
PKC-ε
  PKC-ε specificity versus PKC-α and PKC-δ: PKC-ε specificity ±15% PKC-α and PKC-δ
Primary human neurons; 30 days
  co-localized staining of PSD-95 and synaptophysin in puncta (number of synapses): an increase in co-localized staining of PSD-95 and synaptophysin in puncta
Primary human neurons; 40 days
  survival, neuritic branching and connections: improved survival with increased neuritic branching and connections
Human primary neurons
  protection against ASPD-induced apoptosis: protected against ASPD-induced apoptosis
